≈ marks a conversion by molar mass, not a printed value.
Experiments:
Escherichia coli [1] = assay: Antimicrobial activity against Escherichia coli isolate 16 harboring bla CTX-M-3a gene by broth microdilution method; type: functional
Escherichia coli [2] = assay: Antimicrobial activity against Escherichia coli isolate 36 harboring bla CTX-M-3a gene by broth microdilution method; type: functional
Escherichia coli [3] = assay: Antimicrobial activity against Escherichia coli isolate 86 harboring bla CTX-M-3a gene by broth microdilution method; type: functional
Escherichia coli [4] = assay: Antimicrobial activity against Escherichia coli isolate Z1 harboring bla CTX-M-3a gene by broth microdilution method; type: functional
Escherichia coli [5] = assay: Antimicrobial activity against Escherichia coli isolate 49 harboring bla CTX-M-3a gene by broth microdilution method; type: functional
Escherichia coli [6] = assay: Antimicrobial activity against Escherichia coli isolate 100 harboring bla CTX-M-3a gene by broth microdilution method; type: functional
Escherichia coli [7] = assay: microbe, parasite or virus in culture; settings: ATCC 25922
Escherichia coli [8] = assay: Antimicrobial activity against Escherichia coli isolate 32 harboring bla CTX-M-3a gene by broth microdilution method; type: functional
Escherichia coli [9] = assay: Antimicrobial activity against Escherichia coli isolate 36 harboring bla CTX-M-3a gene by broth microdilution method in presence of clavulanic acid
Escherichia coli [10] = assay: Antimicrobial activity against Escherichia coli ATCC 25922 harboring bla CTX-M-3a gene by broth microdilution method in presence of clavulanic acid; type: functional
Escherichia coli [11] = assay: Antimicrobial activity against Escherichia coli isolate 32 harboring bla CTX-M-3a gene by broth microdilution method in presence of clavulanic acid
Escherichia coli [12] = assay: Antimicrobial activity against Escherichia coli isolate 49 harboring bla CTX-M-3a gene by broth microdilution method in presence of clavulanic acid
Escherichia coli [13] = assay: Antimicrobial activity against Escherichia coli isolate Z1 harboring bla CTX-M-3a gene by broth microdilution method in presence of clavulanic acid
Escherichia coli [14] = assay: Antimicrobial activity against Escherichia coli isolate 86 harboring bla CTX-M-3a gene by broth microdilution method in presence of clavulanic acid
Escherichia coli [15] = assay: Antimicrobial activity against Escherichia coli isolate 16 harboring bla CTX-M-3a gene by broth microdilution method in presence of clavulanic acid
Escherichia coli [16] = assay: Antimicrobial activity against Escherichia coli isolate 100 harboring bla CTX-M-3a gene by broth microdilution method in presence of clavulanic acid
Escherichia coli [17] = assay: Antimicrobial activity against Escherichia coli isolate 16 harboring bla CTX-M-3a gene by broth microdilution method in presence of Tazobactam; type: functional
Escherichia coli [18] = assay: Antimicrobial activity against Escherichia coli isolate 36 harboring bla CTX-M-3a gene by broth microdilution method in presence of Tazobactam; type: functional
Escherichia coli [19] = assay: Antimicrobial activity against Escherichia coli isolate 32 harboring bla CTX-M-3a gene by broth microdilution method in presence of Tazobactam; type: functional
Escherichia coli [20] = assay: Antimicrobial activity against Escherichia coli isolate 49 harboring bla CTX-M-3a gene by broth microdilution method in presence of Tazobactam; type: functional
Escherichia coli [21] = assay: Antimicrobial activity against Escherichia coli ATCC 25922 harboring bla CTX-M-3a gene by broth microdilution method in presence of Tazobactam; type: functional
Escherichia coli [22] = assay: Antimicrobial activity against Escherichia coli isolate 100 harboring bla CTX-M-3a gene by broth microdilution method in presence of Tazobactam; type: functional
Escherichia coli [23] = assay: Antimicrobial activity against Escherichia coli isolate 86 harboring bla CTX-M-3a gene by broth microdilution method in presence of Tazobactam; type: functional

Compound | MIC (Escherichia coli [1]) [µg/mL] | MIC (Escherichia coli [2]) [µg/mL] | MIC (Escherichia coli [3]) [µg/mL] | MIC (Escherichia coli [4]) [µg/mL] | MIC (Escherichia coli [5]) [µg/mL] | MIC (Escherichia coli [6]) [µg/mL] | MIC (Escherichia coli [7]) [µg/mL] | MIC (Escherichia coli [8]) [µg/mL] | also measured
CO/N=C(\C(=O)N[C@@H]1C(=O)N2C(C(=O)[O-])=C(C[N+]3(C)CCCC3)CS[C@H]12)c1csc(N)n1 | 128 (≈ 266 µM) | 256 (≈ 533 µM) | 512 (≈ 1070 µM) | 64 (≈ 133 µM) | 8 (≈ 16.6 µM) | 32 (≈ 66.6 µM) |  |  | 
NCC[C@H](O)C(=O)N[C@@H]1C[C@H](N)[C@@H](O[C@H]2O[C@H](CN)[C@@H](O)[C@H](O)[C@H]2O)[C@H](O)[C@H]1O[C@H]1O[C@H](CO)[C@@H](O)[C@H](N)[C@H]1O [AMIKACIN] | 64 (≈ 109 µM) | 2 (≈ 3.42 µM) | 4 (≈ 6.83 µM) | > 128 | ≤ 0.03 | > 128 | 1 (≈ 1.71 µM) | 16 (≈ 27.3 µM) | 
CC1(C)S[C@@H]2[C@H](NC(=O)[C@H](N)c3ccc(O)cc3)C(=O)N2[C@H]1C(=O)O [AMOXICILLIN] | 4 (≈ 10.9 µM) | 8 (≈ 21.9 µM) | 8 (≈ 21.9 µM) | 32 (≈ 87.6 µM) | 1 (≈ 2.74 µM) | 8 (≈ 21.9 µM) | 4 (≈ 10.9 µM) | 8 (≈ 21.9 µM) | 
CC1(C)S[C@@H]2[C@H](NC(=O)[C@H](N)c3ccccc3)C(=O)N2[C@H]1C(=O)O [AMPICILLIN] | > 1020 | > 1020 | > 1020 | > 1020 | > 1020 | > 1020 | 4 (≈ 11.4 µM) | > 1020 | 
CO/N=C(\C(=O)N[C@@H]1C(=O)N2C(C(=O)O)=C(COC(C)=O)CS[C@H]12)c1csc(N)n1 [CEFOTAXIME] | 64 (≈ 141 µM) | 512 (≈ 1120 µM) | > 1020 | > 1020 | 128 (≈ 281 µM) | 128 (≈ 281 µM) | 0.06 (≈ 0.132 µM) | > 1020 | MIC (Escherichia coli [9]): 0.06 µg/mL; MIC (Escherichia coli [10]): ≤ 0.03 µg/mL; MIC (Escherichia coli [11]): 0.06 µg/mL; MIC (Escherichia coli [12]): 0.06 µg/mL; MIC (Escherichia coli [13]): 0.5 µg/mL; MIC (Escherichia coli [14]): 0.125 µg/mL; MIC (Escherichia coli [15]): 0.125 µg/mL; MIC (Escherichia coli [16]): 0.06 µg/mL
CO[C@@]1(NC(=O)Cc2cccs2)C(=O)N2C(C(=O)O)=C(COC(N)=O)CS[C@@H]21 [CEFOXITIN] | 4 (≈ 9.36 µM) | 8 (≈ 18.7 µM) | 16 (≈ 37.4 µM) | 16 (≈ 37.4 µM) | 2 (≈ 4.68 µM) | 8 (≈ 18.7 µM) | 4 (≈ 9.36 µM) | 16 (≈ 37.4 µM) | 
CC(C)(O/N=C(\C(=O)N[C@@H]1C(=O)N2C(C(=O)[O-])=C(C[n+]3ccccc3)CS[C@H]12)c1csc(N)n1)C(=O)O [CEFTAZIDIME] | 1 (≈ 1.83 µM) | 4 (≈ 7.32 µM) | 8 (≈ 14.6 µM) | 16 (≈ 29.3 µM) | 0.25 (≈ 0.457 µM) | 4 (≈ 7.32 µM) | 0.25 (≈ 0.457 µM) | 4 (≈ 7.32 µM) | MIC (Escherichia coli [9]): 0.25 µg/mL; MIC (Escherichia coli [10]): 0.125 µg/mL; MIC (Escherichia coli [11]): 0.5 µg/mL; MIC (Escherichia coli [12]): 0.06 µg/mL; MIC (Escherichia coli [13]): 1 µg/mL; MIC (Escherichia coli [14]): 0.5 µg/mL; MIC (Escherichia coli [15]): 0.125 µg/mL; MIC (Escherichia coli [16]): 0.5 µg/mL
CO/N=C(\C(=O)N[C@@H]1C(=O)N2C(C(=O)O)=C(CSc3nc(=O)c(O)nn3C)CS[C@H]12)c1csc(N)n1 [CEFTRIAXONE] | > 1020 | > 1020 | > 1020 | > 1020 | 128 (≈ 231 µM) | > 1020 | 0.06 (≈ 0.108 µM) | > 1020 | 
O=C(O)c1cn(C2CC2)c2cc(N3CCNCC3)c(F)cc2c1=O [CIPROFLOXACIN] |  |  |  | > 128 | ≤ 0.03 |  | ≤ 0.03 |  | 
C[C@@H](O)[C@H]1C(=O)N2C(C(=O)O)=C(SCCNC=N)C[C@H]12 [IMIPENEM ANHYDROUS] |  | 0.25 (≈ 0.835 µM) |  | 1 (≈ 3.34 µM) | 0.06 (≈ 0.2 µM) | 0.5 (≈ 1.67 µM) |  | 0.25 (≈ 0.835 µM) | 
C[C@@H](O)[C@H]1C(=O)N2C(C(=O)O)=C(S[C@@H]3CN[C@H](C(=O)N(C)C)C3)[C@H](C)[C@H]12 [MEROPENEM] | 0.06 (≈ 0.156 µM) | 0.125 (≈ 0.326 µM) | 0.06 (≈ 0.156 µM) | 0.125 (≈ 0.326 µM) | 0.06 (≈ 0.156 µM) | 0.25 (≈ 0.652 µM) | ≤ 0.03 | 0.06 (≈ 0.156 µM) | 
CCN1CCN(C(=O)N[C@@H](C(=O)N[C@@H]2C(=O)N3[C@@H]2SC(C)(C)[C@@H]3C(=O)O)c2ccccc2)C(=O)C1=O [PIPERACILLIN] | 256 (≈ 495 µM) | > 1020 | > 1020 | > 1020 | 64 (≈ 124 µM) | > 1020 | 2 (≈ 3.86 µM) | > 1020 | MIC (Escherichia coli [17]): 2 µg/mL; MIC (Escherichia coli [18]): 4 µg/mL; MIC (Escherichia coli [19]): 16 µg/mL; MIC (Escherichia coli [20]): 8 µg/mL; MIC (Escherichia coli [21]): 2 µg/mL; MIC (Escherichia coli [22]): 4 µg/mL; MIC (Escherichia coli [23]): > 128 µg/mL
GENTAMICIN | 32 | 1 | > 128 | > 128 | 0.125 | > 128 |  | > 128 | 

Source: ChEMBL document CHEMBL1629672, “blaCTX-M genes in escherichia coli strains from Croatian Hospitals are located in new (blaCTX-M-3a) and widely spread (blaCTX-M-3a and blaCTX-M-15) genetic structures” (2009)
